Test results taken from patent publication US8772277B2, “Nitrogen-containing heterocyclic compound” (Takeda Pharmaceutical Company Limited, priority 2011, dated 2014).
Structures can show the parent of a compound that is named as a salt.

How the values were obtained:
[1] = target: T1, GST-ERR-α ligand-binding domain (Homo sapiens, UniProt P11474); experiment: HTRF assay system using ERR-α ligand-binding domain (inverse agonist activity, biotinylated SRC-1 (676-700) peptide); assay type: biochemical; details: compound final concentration 30 μM, 665/620 ratio, no compound = 0%, 10 μM XCT-790 = 100%; for inhibition at 30 µM: read-out: inhibition rate (%) at 30 μM
T1 sequence (P11474 193-421 limits assumed): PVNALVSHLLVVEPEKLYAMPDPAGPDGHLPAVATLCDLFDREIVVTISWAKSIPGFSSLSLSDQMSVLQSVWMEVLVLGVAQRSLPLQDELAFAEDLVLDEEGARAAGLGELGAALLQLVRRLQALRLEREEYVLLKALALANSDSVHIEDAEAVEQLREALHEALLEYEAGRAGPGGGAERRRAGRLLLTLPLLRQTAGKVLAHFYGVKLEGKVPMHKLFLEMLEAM
Description: Experimental Example 1 Compound Evaluation in HTRF Assay System Using ERR-α Ligand-Binding Domain
An assay buffer (25 mM HEPES, 100 mM NaCl, 1 mM DTT, 0.1% BSA) containing 5 nM GST-ERR-α ligand-binding domain (final concentration 1.25 nM) was added to a 384 well plate, then 40 μM N-[5-(trifluoromethyl)-1,3,4-thiadiazol-2-yl]-2-cyano-3-[3-methoxy-4-[2,4-di(trifluoromethyl)benzyloxy]phenyl]propenamide (XCT-790) (final concentration 10 μM), or 120 μM compound (final concentration 30 μM) was added. Furthermore, an assay buffer containing XL665 conjugated Streptavidin, Eu^3+ criptate conjugated GST antibody and 200 nM biotinylated SRC-1 (676-700) (final concentration 100 nM) was added, and the mixture was reacted at room temperature for 2 hr. Using Multiplate reader Envision (Perkin Elmer Inc.), after excitation at 320 nm, fluorescence values at 620 nm and 665 nm were measured. The inverse agonist activity of the compound was calculated in percentage with the 665/620 ratio value inhibited by no addition of compound as 0%, and with addition of final concentration 10 μM of XCT-790 as 100%.

[2] = target: T2, fusion protein containing GAL4-DNA-binding domain and ERR full-length (Homo sapiens, UniProt P11474); experiment: Reporter assay system using 293T cells (GAL4-ERR luciferase, inverse agonist activity); assay type: cell-based; details: compound final concentration 3 μM, no compound = 0%, 10 μM XCT-790 = 100%; for inhibition at 3 µM: HEK-293T, read-out: inhibition rate (%) at 3 μM
T2 construct: expressed in transfected cells; host or cells: 293T cells
T2 sequence (P11474 1-423): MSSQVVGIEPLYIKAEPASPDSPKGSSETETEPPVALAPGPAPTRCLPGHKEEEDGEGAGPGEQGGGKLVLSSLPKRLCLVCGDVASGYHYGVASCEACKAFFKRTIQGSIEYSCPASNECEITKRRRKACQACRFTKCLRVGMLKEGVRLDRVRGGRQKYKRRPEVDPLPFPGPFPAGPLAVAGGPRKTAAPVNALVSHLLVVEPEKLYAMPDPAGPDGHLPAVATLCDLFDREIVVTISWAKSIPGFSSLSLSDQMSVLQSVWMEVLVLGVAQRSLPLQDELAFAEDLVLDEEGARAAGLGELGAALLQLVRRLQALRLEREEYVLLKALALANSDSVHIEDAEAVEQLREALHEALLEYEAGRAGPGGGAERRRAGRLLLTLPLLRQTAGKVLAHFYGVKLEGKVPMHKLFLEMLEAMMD
Description: Experimental Example 2 Compound Evaluation in Reporter Assay System Using 293T Cells
293T cells derived from human kidney were seeded in a 150 cm^2 flask by 6,000,000 cells, and cultured in a medium (DMEM medium containing 10% inactivated Fetal Bovine Serum sterile filtered (FBS), […] Gentamicin, 10 mM HEPES buffer (pH 7.4)) at 37° C. in the presence of 5% CO2 for 1 day.
Then, vector DNA having a gene encoding a fusion protein, containing GAL4-DNA-binding domain and ERR full-length and a vector DNA wherein luciferase gene is fused at the downstream of GAL4-binding-sequence were cotransfected by a lipofection method, and the cells were cultured at 37° C. in the presence of 5% CO2 for 1 day. The cells were recovered, sown in a 384 well plate by 15,000 cells, and cultured at 37° C. in the presence of 5% CO2 for 3 hrs. Furthermore, 50 μM N-[5-(trifluoromethyl)-1,3,4-thiadiazol-2-yl]-2-cyano-3-[3-methoxy-4-[2,4-di(trifluoromethyl)benzyloxy]phenyl]propenamide (XCT-790) (final concentration 10 μM) or 15 μM compound (final concentration 3 μM) was added, and the cells were cultured at 37° C. in the presence of 5% CO2 for 1 day. The luciferase activity was measured by using multiplate reader Envision (Perkin Elmer Inc.). The inverse agonist activity of the compound was calculated in percentage with the luciferase activity inhibited by no addition of compound as 0%, and with addition of final concentration 10 μM of XCT-790 as 100%.

Row | inhibition at 30 µM [1] [%] | inhibition at 3 µM [2] [%] | inhibition rate (%) at 30 μM [1] [%] | inhibition rate (%) at 3 μM [2] [%] | Compound
1 | 109 | 82 | – | – | CC(C)(CO)CNC1=NC(=O)S/C1=C\C1CCN(Cc2ccc(C(F)(F)F)cc2C(F)(F)F)CC1 [Example 77, (5Z)-5-({1-[2,4-bis(trifluoromethyl)benzyl]piperidin-4-yl}methylidene)-4-[(3-hydroxy-2,2-dimethylpropyl)amino]-1,3-thiazol-2(5H)-one]
2 | 107 | 88 | – | – | CCN(CC)CCNC1=NC(=O)S/C1=C\C1CCN(Cc2ccc(C(F)(F)F)cc2C(F)(F)F)CC1 [Example 9, (5Z)-5-({1-[2,4-bis(trifluoromethyl)benzyl]piperidin-4-yl}methylidene)-4-{[2-(diethylamino)ethyl]amino}-1,3-thiazol-2(5H)-one dihydrochloride]
3 | 101 | 88 | – | – | CCCNC1=NC(=O)S/C1=C\C1CCN(Cc2ccc(C(F)(F)F)cc2C(F)(F)F)CC1 [Example 200, (5Z)-5-({1-[2,4-bis(trifluoromethyl)benzyl]piperidin-4-yl}methylidene)-4-(propylamino)-1,3-thiazol-2(5H)-one]
4 | 109 | – | – | – | CNC1=NC(=O)S/C1=C\C1CCN(Cc2ccc(C(F)(F)F)cc2C(F)(F)F)CC1 [Example 37, (5Z)-5-({1-[2,4-bis(trifluoromethyl)benzyl]piperidin-4-yl}methylidene)-4-(methylamino)-1,3-thiazol-2(5H)-one fumarate]
5 | 110 | 91 | – | – | CN(CCO)CCNC1=NC(=O)S/C1=C\C1CCN(Cc2ccc(C(F)(F)F)cc2C(F)(F)F)CC1 [Example 58, (5Z)-5-({1-[2,4-bis(trifluoromethyl)benzyl]piperidin-4-yl}methylidene)-4-({2-[(2-hydroxyethyl)(methyl)amino]ethyl}amino)-1,3-thiazol-2(5H)-one ½fumarate]
6 | 101 | 84 | – | – | CCNC1=NC(=O)S/C1=C\C1CCN(Cc2ccc(C(F)(F)F)cc2C(F)(F)F)CC1 [Example 199, (5Z)-5-({1-[2,4-bis(trifluoromethyl)benzyl]piperidin-4-yl}methylidene)-4-(ethylamino)-1,3-thiazol-2(5H)-one]
7 | – | 88 | – | – | CNC1=NC(=O)S/C1=C\C1CCN(Cc2ccc(C(F)(F)F)cc2C(F)(F)F)CC1 [Example 3, (5Z)-5-({1-[2,4-bis(trifluoromethyl)benzyl]piperidin-4-yl}methylidene)-4-(methylamino)-1,3-thiazol-2(5H)-one]
8 | – | – | 97 | 87 | O=C1N=C(NCCOCCO)/C(=C/C2CCN(Cc3ccc(C(F)(F)F)cc3C(F)(F)F)CC2)S1 [Example 8, (5Z)-5-({1-[2,4-bis(trifluoromethyl)benzyl]piperidin-4-yl}methylidene)-4-{[2-(2-hydroxyethoxy)ethyl]amino}-1,3-thiazol-2(5H)-one]
9 | 106 | 91 | – | – | O=C1N=C(NCC(O)CO)/C(=C/C2CCN(Cc3ccc(C(F)(F)F)cc3C(F)(F)F)CC2)S1 (stereo not drawn) [Example 56, (5Z)-5-({1-[2,4-bis(trifluoromethyl)benzyl]piperidin-4-yl}methylidene)-4-[(2,3-dihydroxypropyl)amino]-1,3-thiazol-2(5H)-one]
10 | 108 | 90 | – | – | CCN(CC)CCOCCNC1=NC(=O)S/C1=C\C1CCN(Cc2ccc(C(F)(F)F)cc2C(F)(F)F)CC1 [Example 47, (5Z)-5-({1-[2,4-bis(trifluoromethyl)benzyl]piperidin-4-yl}methylidene)-4-({2-[2-(diethylamino)ethoxy]ethyl}amino)-1,3-thiazol-2(5H)-one ditosylate]
11 | 105 | 86 | – | – | CNC1=NC(=O)N(C)/C1=C\C1CCN(Cc2ccc(C(F)(F)F)cc2C(F)(F)F)CC1 [Example 80, (5Z)-5-({1-[2,4-bis(trifluoromethyl)benzyl]piperidin-4-yl}methylidene)-1-methyl-4-(methylamino)-1,5-dihydro-2H-imidazol-2-one]
12 | 49 | 67 | – | – | C#CCNC1=NC(=O)S/C1=C\C1CCN(Cc2ccc(C(F)(F)F)cc2Cl)CC1 [Example 59, (5Z)-5-({1-[2-chloro-4-(trifluoromethyl)benzyl]piperidin-4-yl}methylidene)-4-(prop-2-yn-1-ylamino)-1,3-thiazol-2(5H)-one fumarate]
13 | 100 | 90 | – | – | CN(C)C(=O)CCNC1=NC(=O)S/C1=C\C1CCN(Cc2ccc(C(F)(F)F)cc2C(F)(F)F)CC1 [Example 140, N^3-[(5Z)-5-({1-[2,4-bis(trifluoromethyl)benzyl]piperidin-4-yl}methylidene)-2-oxo-2,5-dihydro-1,3-thiazol-4-yl]-N,N-dimethyl-β-alaninamide]
14 | 106 | 87 | – | – | O=C1N=C(NC2CCOC2)/C(=C/C2CCN(Cc3ccc(C(F)(F)F)cc3C(F)(F)F)CC2)S1 (stereo not drawn) [Example 43, (5Z)-5-({1-[2,4-bis(trifluoromethyl)benzyl]piperidin-4-yl}methylidene)-4-(tetrahydrofuran-3-ylamino)-1,3-thiazol-2(5H)-one 0.5 fumarate]
15 | 105 | 92 | – | – | C#CCNC1=NC(=O)S/C1=C\C1CCN(Cc2ccc(Cl)cc2C(F)(F)F)CC1 [Example 24, (5Z)-5-({1-[4-chloro-2-(trifluoromethyl)benzyl]piperidin-4-yl}methylidene)-4-(prop-2-yn-1-ylamino)-1,3-thiazol-2(5H)-one fumarate]
16 | 106 | 85 | – | – | COCCOCCNC1=NC(=O)S/C1=C\C1CCN(Cc2ccc(C(F)(F)F)cc2C(F)(F)F)CC1 [Example 39, (5Z)-5-({1-[2,4-bis(trifluoromethyl)benzyl]piperidin-4-yl}methylidene)-4-{[2-(2-methoxyethoxy)ethyl]amino}-1,3-thiazol-2(5H)-one]
17 | – | 88 | – | – | CC(C)(O)C#CCNC1=NC(=O)S/C1=C\C1CCN(Cc2ccc(C(F)(F)F)cc2C(F)(F)F)CC1 [Example 87, (5Z)-5-({1-[2,4-bis(trifluoromethyl)benzyl]piperidin-4-yl}methylidene)-4-[(4-hydroxy-4-methylpent-2-yn-1-yl)amino]-1,3-thiazol-2(5H)-one]

Row | Compound | inhibition at 30 µM [1] [%] | inhibition at 3 µM [2] [%] | inhibition rate (%) at 30 μM [1] [%] | inhibition rate (%) at 3 μM [2] [%]
18 | CNC1=NC(=O)S/C1=C\[C@@H]1C[C@H]2CC[C@@H](C1)N2Cc1ccc(C(F)(F)F)cc1C(F)(F)F [Example 15, (5Z)-5-({(3-exo)-8-[2,4-bis(trifluoromethyl)benzyl]-8-azabicyclo[3.2.1]oct-3-yl}methylidene)-4-(methylamino)-1,3-thiazol-2(5H)-one] | 102 | 88 | – | –
